“Also recorded” adds a separate entry of the source. Bridge positions count the residues as written; N and C are the ends. Square brackets hold non-standard residues; d marks the D form. Ends that are not written are not given here. R8 = C=CCCCCCC[C@@](C)(N)C(=O)O; S5 = C=CCCC[C@](C)(N)C(=O)O; Nle = CCCC[C@H](N)C(=O)O; CycB = not defined here; βAla = NCCC(=O)O
Columns and labels:
[1] = system: cells; experiment: Cellular uptake and intracellular distribution of TAMRA-labeled peptides by fluorescence microscopy; conditions: for Distribution/Observations: TAMRA-labeled peptides 10 μM, approximately 1 hour incubation, fluorescence microscope
From the text: In Vitro Cell Uptake Assays: To assess cellular uptake of cargoes that are bound to cell-permeable stapled peptide modules, fluorescent tracers (e.g. TAMRA, FITC) are attached to the cell-permeable stapled peptide modules or the cargos. The cellular uptake can be tracked by, e.g., epifluorescence microscopy, fluorescence microscopy, confocal microscopy, and/or flow cytometry, at different time periods. In this manner, the rate of uptake and the intracellular distribution patterns of the stabilized peptides (e.g., CPSPs and CPSP-conjugates, other cell-permeable stapled peptides) can also be determined.
CPSP1-CPSP9 and L-CPSP (where L is an F-actin staining peptide) were labeled with a fluorescent dye, TAMRA. […] These TAMRA-labeled peptides (10 μM) were added to cell culture. After incubating the peptides with the cells for approximately 1 hour, the cells were examined by a fluorescence microscope.
Furthermore, TAMRA-labeled CPSP3 (SEQ ID NO: 14) (10 μM) and MitoTracker were both added to the cell culture.

[2] = system: mitochondria of the treated cells; experiment: Co-labeling of TAMRA-labeled CPSP3 with MitoTracker; assay type: cell-based; conditions: 10 μM (FIG. 2); listed as TAMRA-labeled CPSP3
[3] = target: T1, MCL-1 (Homo sapiens, UniProt Q07820); experiment: Intracellular binding assay: colocalization with expressed MCL-1 ectopically targeted to the nuclear lamina; assay type: cell-based; conditions: colocalization at nuclear lamina with ectopically targeted MCL-1 (FIG. 5)
T1 construct: expressed in transfected cells
From the text: Intracellular binding Assays: To assess the binding of the CPSP-fusions to their respective protein target(s), cells were transfected with a GFP binding nanobody fraction coupled to nuclear lamina binding sequence (lamin B1). This nanobody binds to GFP tagged proteins and recruits them to the nuclear lamina allowing the recruitment and visualization of proteins interacting with the GFP tagged protein of interest. For example, GFP-MCL-1 can be expressed and localized to the nuclear lamina, followed by treatment of cells with TAMRA-labeled ATSP-7041/MCL-1 SAHBD fusion, followed by confocal microscopy imaging to monitor for the colocalization of TAMRA-labeled CPSP fusion at the nuclear lamina.

[4] = conjugated to CPSP3, 10 μM (FIG. 3B)

T1 sequence (Q07820 whole entry, species assumed): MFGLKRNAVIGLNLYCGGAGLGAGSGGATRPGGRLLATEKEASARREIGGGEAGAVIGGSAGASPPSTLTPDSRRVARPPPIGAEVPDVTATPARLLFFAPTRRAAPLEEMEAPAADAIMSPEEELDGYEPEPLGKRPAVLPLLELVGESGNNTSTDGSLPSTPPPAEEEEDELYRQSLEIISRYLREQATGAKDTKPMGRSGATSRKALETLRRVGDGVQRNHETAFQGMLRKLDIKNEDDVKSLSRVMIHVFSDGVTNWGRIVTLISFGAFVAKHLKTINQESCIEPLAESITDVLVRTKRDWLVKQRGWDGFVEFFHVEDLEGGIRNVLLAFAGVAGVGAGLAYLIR

For “* Ba X R r R X R B (SEQ ID NO: 14) [TAMRA-CPSP3]”, the Distribution/Observations [1] was “CPSP3 were enriched at mitochondria as well as Cytosol;; also recorded: Nucleus; Nucleolus; Endosomes; lysosomes” and the “enrichment at the mitochondria (co-labeling with MitoTracker)” value [2] was “Enrichment of TAMRA-labeled CPSP3 at the mitochondria”.
In the case of “* Ba X R R R X R B (SEQ ID NO: 18) [TAMRA-CPSP7]”, the Distribution/Observations [1] is reported as “Cytosol; Nucleus; Nucleolus; Endosomes; lysosomes”.
For “Ac B G V A D L I K K F E X I A K X E K* G G G G G X R r R X R B (SEQ ID NO: 21) (Ac-[Nle]GVADLIKKFE[S5]IAK[S5]EK(TAMRA)GGGGG[S5]R[dR]R[S5]R[Nle]; not fully specified (bridges); bridges not given here) [TAMRA-L-CPSP3]”, the Distribution/Observations [1] was “Cytosol; Nucleus; Nucleolus; Endosomes; lysosomes;; also recorded: Actin filaments”, the “delivery of the peptide into the cell” value [1, 4] was “robust delivery of the peptide into the cell” and the intracellular localization [1, 4] was “notable localization of L-CPSP3 to actin filaments”.
With “* Ba X R r R X R B G B R X R r R X (SEQ ID NO: 19) [TAMRA-CPSP8]” the Distribution/Observations [1] was “Cytosol; Nucleus; Nucleolus; Endosomes; lysosomes”.
“* Ba XRrRXRB-GZG-EALKKALRRHRFLWQR RQRA (SEQ ID NO: 63) ([βAla][S5]R[dR]R[S5]R[Nle]G[βAla]GEALKKALRRHRFLWQRRQRA; not fully specified (N-terminus, bridges); bridges not given here; also: TAMRA label) [TAMRA-CPSP3/vMIA]” was tested, and the intracellular delivery ([1]; 10 μM, 1 h (FIG. 7, bottom panel)) was “robust intracellular delivery”.
With “* Ba X R r R X (SEQ ID NO: 13) [TAMRA-CPSP2]” the Distribution/Observations [1] was “Cytosol; Nucleus; Nucleolus; Endosomes; lysosomes”.
“* Ba X R r R X B (SEQ ID NO: 15) [TAMRA-CPSP4]” was tested, and the Distribution/Observations [1] was “Cytosol; Nucleus; Nucleolus; Endosomes; lysosomes”.
For “* Ba X R r R X R B G X R r R X R B (SEQ ID NO: 20) [TAMRA-CPSP9]”, the Distribution/Observations [1] was “Cytosol; Nucleus; Nucleolus; Endosomes; lysosomes”.
In the case of “* Ba X R r R X R Naph (SEQ ID NO: 16) [TAMRA-CPSP5]”, the Distribution/Observations [1] is reported as “Cytosol; Nucleus; Nucleolus; Endosomes; lysosomes”.
“* Ba R K A L E T L R R V B D G V X R N H X T A F G G G G G L T F 8 E Y W A Q CycB X S A A (SEQ ID NO: 22) ([βAla]RKALETLRRV[Nle]DGV[S5]RNH[S5]TAFGGGGGLTF[R8]EYWAQ[CycB][S5]SAA; staple 16-20, 32-39 (inferred); reading uncertain; also: TAMRA label) [TAMRA-labeled MCL-1 SAHBD/ATSP-7041]” was tested, and the “delivery to the cytosol of treated cells” value ([1]; 4 μM, 4 hours (FIG. 1, FIGS. 4A-B)) was “efficiently delivered to the cytosol”, the “intracellular engagement of MCL-1” value [3] was “colocalization of the fusion to the nuclear lamina” and the “intracellular engagement of MCL-1” value ([3]; listed as CPSP-MCL-1 SAHBD conjugate) was “retains the capacity to engage its intracellular target”.
“* Ba LTF8EYWAQ CycB XSAAAGGGGGK (SEQ ID NO: 61) -[GCCTAGTTTATCACCAATAAT] (SEQ ID NO: 62) [TAMRA-ATSP-7041/PNA]” was tested, and the intracellular delivery ([1]; PNA fusion (FIG. 6)) was “robust intracellular delivery”.
For “* Ba X R r R X Naph (SEQ ID NO: 17) [TAMRA-CPSP6]”, the Distribution/Observations [1] was “Cytosol; Nucleus; Nucleolus; Endosomes; lysosomes”.
“* Ba X R r R X R (SEQ ID NO: 12) [TAMRA-CPSP1]” was tested, and the Distribution/Observations [1] was “Cytosol; Nucleus; Nucleolus; Endosomes; lysosomes”.
